# Patent publication US7608281B2, “Composition and use of RAR antagonists for promoting chondrogenesis” (T. Michael Underhill, priority 1999, dated 2009)
# “Also recorded” adds a separate entry of the source.
# T1: RARβ (Homo sapiens, UniProt P10826)
# T1 construct: expressed in transfected cells; host or cells: P19 embryonal carcinoma cells
# T1 sequence (P10826 1-455): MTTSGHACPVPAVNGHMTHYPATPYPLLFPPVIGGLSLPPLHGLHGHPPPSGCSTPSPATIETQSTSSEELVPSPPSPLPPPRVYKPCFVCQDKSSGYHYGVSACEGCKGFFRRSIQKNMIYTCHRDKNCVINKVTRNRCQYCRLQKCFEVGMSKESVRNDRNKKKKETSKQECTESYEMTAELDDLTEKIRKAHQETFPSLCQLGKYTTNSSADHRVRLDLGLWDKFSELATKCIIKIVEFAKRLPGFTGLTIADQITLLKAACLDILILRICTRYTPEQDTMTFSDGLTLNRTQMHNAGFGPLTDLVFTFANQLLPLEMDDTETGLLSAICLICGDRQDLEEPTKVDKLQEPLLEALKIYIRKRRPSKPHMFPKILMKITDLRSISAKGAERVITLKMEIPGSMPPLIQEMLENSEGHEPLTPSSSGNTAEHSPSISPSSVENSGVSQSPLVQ
# T2: RARγ (Homo sapiens, UniProt P13631)
# T2 construct: expressed in transfected cells; host or cells: P19 embryonal carcinoma cells
# T2 sequence (P13631 1-454): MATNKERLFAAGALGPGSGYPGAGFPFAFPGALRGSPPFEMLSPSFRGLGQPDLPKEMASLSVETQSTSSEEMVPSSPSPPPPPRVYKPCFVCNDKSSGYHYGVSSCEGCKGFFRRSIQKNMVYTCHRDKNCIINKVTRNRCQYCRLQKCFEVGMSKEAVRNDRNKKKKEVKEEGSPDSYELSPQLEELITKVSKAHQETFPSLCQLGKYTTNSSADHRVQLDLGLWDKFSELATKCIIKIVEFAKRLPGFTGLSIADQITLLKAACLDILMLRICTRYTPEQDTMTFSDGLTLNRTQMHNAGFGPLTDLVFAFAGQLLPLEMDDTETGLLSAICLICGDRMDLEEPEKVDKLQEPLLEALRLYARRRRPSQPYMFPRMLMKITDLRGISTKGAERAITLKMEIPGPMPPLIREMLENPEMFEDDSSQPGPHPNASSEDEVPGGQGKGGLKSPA
# T3: RARα (Homo sapiens, UniProt P10276)
# T3 construct: expressed in transfected cells; host or cells: P19 embryonal carcinoma cells
# T3 sequence (P10276 1-462): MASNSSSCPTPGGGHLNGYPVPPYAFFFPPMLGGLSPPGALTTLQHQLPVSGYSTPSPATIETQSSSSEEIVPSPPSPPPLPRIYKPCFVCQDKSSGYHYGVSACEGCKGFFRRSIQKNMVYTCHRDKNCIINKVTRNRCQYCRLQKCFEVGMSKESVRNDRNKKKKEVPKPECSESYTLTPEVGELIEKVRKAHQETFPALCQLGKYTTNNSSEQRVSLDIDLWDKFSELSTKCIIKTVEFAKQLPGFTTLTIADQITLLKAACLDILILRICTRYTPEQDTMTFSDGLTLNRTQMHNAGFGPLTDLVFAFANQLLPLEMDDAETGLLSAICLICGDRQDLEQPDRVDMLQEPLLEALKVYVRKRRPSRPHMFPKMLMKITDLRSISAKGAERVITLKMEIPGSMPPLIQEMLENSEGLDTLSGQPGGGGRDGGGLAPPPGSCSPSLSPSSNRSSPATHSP
# Columns and labels:
# [1] = test system: wild-type limb mesenchyme micromass cultures; assay: Cartilage nodule formation in wild-type limb bud micromass cultures (alcian blue staining); type: cell-based, murine
# Description: Micromass cultures were prepared from murine E11.25 to E11.75 fore and hind limb buds as previously described with the following modifications (Cash et al. (1997) J. Cell Biol. 136, 445-457). After proteolytic digestion cells were filtered through a Cell Sieve ([…], Falcon) to obtain a single cell suspension. Culture media (40% Dulbecco's modified Eagle's medium, 60% F12 was supplemented with fetal bovine serum to 10%, Gibco-BRL) was changed daily. […] Addition/removal experiments included either adding or removing supplemented media on the indicated culture day, 24 hours after culture initiation was considered day 1. To detect transgene-expressing cells, cultures were fixed stained as previously described, with magenta-gal (BioSynth International Inc.) being substituted for X-gal. This was followed by alcian blue staining for cartilage-specific glycosaminoglycans. Alcian blue staining of magenta-gal stained cultures turned the red precipitate to a purple color, this is a result of incubating magenta-gal stained cells at pH 1. This double-staining technique enables transgene-expressing cells to be localized with respect to alcian blue stained cartilage nodules.
# RARβ = molecular target: T1, RARβ; assay: Transient transfection: inhibition of all-trans RA induction of RARE luciferase construct in P19 cells, RARβ; type: cell-based; settings: 1 μM AGN194301, 100 nM all-trans RA
# Description: (§1) The ability of AGN194301 to inhibit all-trans RA induction of an RARE containing luciferase construct was performed in P19 embryonal carcinoma cells as previously described with some modification (Underhill et al. (1994) Mol. Endo. 8, 274-285). P19 cells were seeded at a density of 1.5×10^4 cells/well in 6 well plates. […] Following transfection cells were washed and fresh media was added that contained 1×10^−7 M all-trans RA and various amounts of AGN194301. Twenty-four hours later cell extracts were prepared, and luciferase and β-galactosidase activity measured. Luciferase activity was normalized with β-galactosidase activity to control for differences in transfection efficiency.
# (§2) RAR activity as used herein refers to the level of RA-induced transcriptional activity of the RARs. Micromass cultures were treated with the RARα-specific antagonist AGN194301 to examine whether inhibition of RARα activity stimulated cartilage formation. Addition of 1 μM AGN194301 to wild-type micromass cultures lead to a dramatic increase in nodule number with no apparent increase in nodule size as compared to untreated control cultures (FIG. 5G, J, M). […] To confirm that the concentrations utilized in these experiments inhibited RARα activity specifically, the level of RARα, RARβ and RARγ mediated RARE activation was measured with 100 nM all-trans RA in the presence of various concentrations of antagonist. […]
# RARγ = molecular target: T2, RARγ; assay: Transient transfection: inhibition of all-trans RA induction of RARE luciferase construct in P19 cells, RARγ; type: cell-based; settings: 1 μM AGN194301, 100 nM all-trans RA
# Description: as §1, §2
# RARα = molecular target: T3, RARα; assay: Transient transfection: inhibition of all-trans RA induction of RARE luciferase construct in P19 cells, RARα; type: cell-based; settings: 1 μM AGN194301, 100 nM all-trans RA
# Description: as §1, §2
Molecule,"rescue of cartilage nodule formation in Noggin-treated cultures ([1]; 1 μM AGN194301 + 10 ng/ml Noggin, day 6)","increase in number of cartilage nodules (more nodules than untreated cultures) ([1]; 1 μM AGN194301, 8 days in culture, wild-type cultures, FIG. 5M)",RARβ signaling (RARE activation) remaining (RARβ),RARγ signaling (RARE activation) remaining (RARγ),RARα signaling (RARE activation) remaining (RARα),"reduction of cartilage nodule formation in comparison to untreated controls ([1]; 10 ng/ml Noggin, wild-type cultures)","number of cartilage nodules relative to control cultures ([1]; Noggin alone 10 ng/ml, FIG. 6d)"
"Cc1ccc(C2=CC(C)(C)Oc3c(Br)cc(C(=O)Nc4ccc(C(=O)O)c(F)c4)cc32)cc1 [AGN194301, 2-Fluoro-4-[(1-(8-bromo-2,2-dimethyl-4-(4-methylphenyl)-2-H-chromen-6-yl)-methanoyl)-amino]-benzoic acid]",resembled untreated cultures; also recorded: comparable to that of control cultures,60%,~18 % of controls,~26 % of controls,~0.3 % of controls,,
"Noggin: purified Xenopus noggin protein, secreted inhibitor of BMP-2 and -4 (protein, UniProt P49011 20-222, looked up) Noggin: RIDQGGCQHYLHIRPAPSENLPLVDLIEHPDPIYDPKEKDLNETLLRTLMVGHFDPNFMATILPEERLGVEDLGELDLLLRQKPSGAMPAEIKGLEFYEGLQSKKHRLSKKLRRKLQMWLWSQTFCPVLYTWNDLGTRFWPRYVKVGSCYSKRSCSVPEGMVCKAAKSMHLTILRWRCQRRVQQKCAWITIQYPVISECKCSC",,,,,,~84%,~10 % of that of control cultures
